The structures appear in SMILES notation.

Common to all, as to type: cell-based
One test deals with IMR32 cells. Nature of the test: Cell viability (CellTiter-Glo), IMR32. The note with it: Homo sapiens, IMR-32. The procedure:
(§1) The 54 compounds were tested at 10 µM for their inhibition of the IMR32 human neuroblastoma cell line, in which the MYCN gene is amplified and actively expressed (Table 3). HO15.19 cell line (Myc-negative) was used in parallel as a compound specificity control.
(§2) Viability of N-Myc positive (IMR32and NCI-H660) and negative (HO15.19) cells were determined using the CellTiter-Glo Luminescent Cell Viability Assay (Promega cat. G7570) (Madison, WI, USA). Cells were seeded into a 96-well white plate with a clear bottom: 10,000 cells per well for the IMR32 cells cultured in EMEM supplemented with 10% FBS, 2000 HO15.19 cells per well in Eagle’s minimum essential medium (EMEM) supplemented with 10% FBS, and 2000 cells per well for the NCI-H660 neuroendocrine cells cultured in RPMI supplemented 5% FBS, 1% Insulin-Transferrin-Selenium (Thermo Fisher, 41400-045), 10nM b-estradiol (Sigma, E8875), 10nM hydrocortisone (Sigma H0888) and 1% matrigel. Following 24 h incubation, the cells were treated with serial dilutions of the derivatives along with the respective parental compound starting at 25 μM for 72 h. Cell Titer Glo was added to each well at a ratio of 1:1 and incubated on a shaker at RT for 2 min. Luminescence and IC50 was measured with the TECAN InfiniteM200 plate reader (Männedorf, Switzerland).

A further test deals with HO15.19 cells. Nature of the test: Cell viability counter-screen (CellTiter-Glo), Myc-negative HO15.19. As to conditions: Rattus norvegicus, HO15.19, 10 µM; Myc-negative specificity control. On the procedure:
as §1, §2
Background: A counterscreen serves to expose hits that act by an unwanted route or on another target.

In test [1] the test system is N-Myc-Max transcription activity (LNCaP-NMYC cells). Kind of test: Myc transcription assay (Cignal Myc reporter, luciferase) in LNCaP-NMYC cells. The arrangement: 10 uM corrected / 5uM corrected: unit not given here. As to conditions: for transcription inhibition activity (in words) / transcription inhibition activity at 5 µM (in words): LNCaP-NMYC; for transcription inhibition activity (in words): screened at 10 µM and 5 µM; for 5uM corrected / 10 uM corrected: sheet 181_set. On the procedure:
To determine the optimal substitutions on the free phenyl ring, we used the active scaffold for a second substructure search against the ZINC15 database to identify a set of 181 analogues for further validation (VPC-70617 to -70799, presented in Supplementary Table S1). Compounds were tested for their inhibition of a N-Myc-Max luciferase transcription activity assay at 5 and 10 µM Figure 2a. Herein, we inspected all the proposed substitutions on the scaffold to discern the features required to construct a possible SAR model for inhibitors targeting N-Myc-Max/DBD complex (Figure 2b).
LNCaP-NMYC cells were transfected using TransIT-2020 transfection reagents per the manufacturer’s protocol. Cells were plated at a density of 10,000 cells per well of a 96-well plate. Following 24 h treatment with 5 µM or 10 µM of the compounds, the Myc reporter activity was measured using the Cignal Myc Reporter Assay Kit from Qiagen (#336841) (Hilden, Germany) per the manufacturer’s instructions.

For orientation: inhibition means the share of the control response that was lost under treatment. For the molecule `N#Cc1ccc(NNC(=O)c2ccc(Cl)c(F)c2)c(C(F)(F)F)c1` [compound 70621], the figures for the inhibition at 10 µM in the test with IMR32 cells and in the test on HO15.19 cells were 98.8% and 68.6%, respectively. For the same molecule, in test [1], the “transcription inhibition activity (in words)” value is listed as “good inhibition at both concentrations tested”.

As for `N#Cc1ccc(NNC(=O)c2ccc(Cl)c(Br)c2)c(C(F)(F)F)c1` [compound 70622], the figures for the inhibition at 10 µM in the test with IMR32 cells and in the test with HO15.19 cells were 99.4% and 36.4%, respectively. In addition, in test [1], the “transcription inhibition activity (in words)” value is “good inhibition at both concentrations tested”.

With `N#Cc1ccc(NNC(=O)c2ccc(Cl)cc2O)c(C(F)(F)F)c1` [compound 70633], the figures for the inhibition at 10 µM in the test with IMR32 cells and in the test with HO15.19 cells were 93.6% and 77%, respectively. For the same molecule, the “transcription inhibition activity (in words)” value in test [1] is recorded as “activity was maintained”.

As for `N#Cc1ccc(NNC(=O)c2ccc(Br)c(Cl)c2)c(C(F)(F)F)c1` [compound 70635], the inhibition at 10 µM in the test with IMR32 cells was 7.5%; with HO15.19 cells it was 11.8%. For the same molecule, the “transcription inhibition activity (in words)” value in test [1] was “strong increase in inhibition activity”.

As to `N#Cc1ccc(NNC(=O)c2cc(F)cc(F)c2)c(C(F)(F)F)c1` [compound 70639], the inhibition at 10 µM is 60.2% in the test on IMR32 cells and 66.1% in the test on HO15.19 cells. Besides, the “transcription inhibition activity (in words)” value in test [1] is listed as “better inhibition activity”.

In the case of `N#Cc1ccc(NNC(=O)c2cc(Cl)ccc2O)c(C(F)(F)F)c1` [compound 70640], the figures for the inhibition at 10 µM in the test with IMR32 cells and with HO15.19 cells were 93.5% and 76.7%, respectively. Moreover, the “transcription inhibition activity (in words)” value in test [1] is listed as “better inhibition activity”.

On to `N#Cc1ccc(NNC(=O)c2cc(F)cc(Cl)c2)c(C(F)(F)F)c1` [compound 70644], for which the inhibition at 10 µM in the test on IMR32 cells was determined as 88.3%; in the test on HO15.19 cells it was 69.5%. In test [1], the “transcription inhibition activity (in words)” value is given as “better inhibition activity”.

In the case of `N#Cc1ccc(NNC(=O)c2ccc(F)c(C(F)(F)F)c2)c(C(F)(F)F)c1` [compound 70647], the inhibition at 10 µM was 88.6% in the test with IMR32 cells and 70.9% in the test with HO15.19 cells. For the same molecule, in test [1], the “transcription inhibition activity (in words)” value is recorded as “strong increase in inhibition activity”.

`N#Cc1ccc(NNC(=O)c2cc(Cl)cc(Br)c2)c(C(F)(F)F)c1` [compound 70650]: the inhibition at 10 µM stood at 92.1% in the test with IMR32 cells and 80.2% with HO15.19 cells. The “transcription inhibition activity (in words)” value in test [1] was “very strong transcription inhibition”.

Regarding `N#Cc1ccc(NNC(=O)c2cc(Cl)cc(Cl)c2)c(C(F)(F)F)c1` [compound 70652], the inhibition at 10 µM with IMR32 cells was determined as 92.5%; in the test on HO15.19 cells, 80.7%. The “transcription inhibition activity (in words)” value in test [1] is on record as “very strong transcription inhibition”.

In the case of `N#Cc1ccc(NNC(=O)c2ccc(SC(F)(F)F)cc2)c(C(F)(F)F)c1` [compound 70658], the results for the inhibition at 10 µM with IMR32 cells and in the test with HO15.19 cells were 46.9% and 57.2%, respectively. In test [1], the “transcription inhibition activity (in words)” value is “active”.

With `N#Cc1ccc(NNC(=O)c2cc(F)c(F)cc2Cl)c(C(F)(F)F)c1` [compound 70659], the inhibition at 10 µM with IMR32 cells came out at 31%; in the test on HO15.19 cells, 31.5%. Further, the “transcription inhibition activity (in words)” value in test [1] is “strong increase in inhibition activity”.

Consider `N#Cc1ccc(NNC(=O)c2ccc(Cl)c(C#N)c2)c(C(F)(F)F)c1` [compound 70662], for which the inhibition at 10 µM with IMR32 cells came out at 11%; in the test on HO15.19 cells, 9.9%. Further, in test [1], the “transcription inhibition activity at 5 µM (in words)” value is recorded as “recovered the activity”.

`N#Cc1ccc(NNC(=O)c2ccc([N+](=O)[O-])cc2)c(C(F)(F)F)c1` [compound 70663]: the figures for the inhibition at 10 µM in the test with IMR32 cells and in the test on HO15.19 cells were 28.9% and 7.9%, respectively. Further, the “transcription inhibition activity (in words)” value in test [1] is on record as “maintained good transcription inhibition activity”.

Consider `N#Cc1cccc(C(=O)NNc2ccc(C#N)cc2C(F)(F)F)c1` [compound 70672], for which the inhibition at 10 µM in the test on IMR32 cells amounted to 18%; in the test with HO15.19 cells, 8.1%.

`Cc1cc(Cl)cc(C(=O)NNc2ccc(C#N)cc2C(F)(F)F)c1` [compound 70675]: the inhibition at 10 µM in the test with IMR32 cells stood at 65.4%; with HO15.19 cells it was 65.9%. The “transcription inhibition activity (in words)” value in test [1] is reported as “better inhibition activity”.

On to `Cc1cc(C(=O)NNc2ccc(C#N)cc2C(F)(F)F)cc(C)c1F` [compound 70679], for which the inhibition at 10 µM in the test on IMR32 cells was 1.1%; with HO15.19 cells it was 7.3%. For the same molecule, the “transcription inhibition activity (in words)” value in test [1] was “strong increase in inhibition activity”.

As to `N#Cc1ccc(NNC(=O)c2ccc(F)c(Cl)c2)c(C(F)(F)F)c1` [compound 70680], the inhibition at 10 µM came out at 52.9% in the test on IMR32 cells and 64% in the test on HO15.19 cells. Also, the “transcription inhibition activity (in words)” value in test [1] is on record as “strong increase in inhibition activity”.

Consider `N#Cc1ccc(NNC(=O)c2ccc(SC(F)F)cc2)c(C(F)(F)F)c1` [compound 70682], for which the values for the inhibition at 10 µM in the test with IMR32 cells and with HO15.19 cells were 11% and 22.9%, respectively.

`COc1cc(C(=O)NNc2ccc(C#N)cc2C(F)(F)F)ccc1Cl` [compound 70685]: the inhibition at 10 µM in the test on IMR32 cells was 24.7%; in the test on HO15.19 cells, 15.2%. The “transcription inhibition activity at 5 µM (in words)” value in test [1] was “recovered the activity”.

For `N#Cc1ccc(NNC(=O)c2cc(F)c(F)c(F)c2)c(C(F)(F)F)c1` [compound 70686], the inhibition at 10 µM in the test with IMR32 cells came out at 82.2%; in the test with HO15.19 cells, 75.8%. Moreover, in test [1], the “transcription inhibition activity (in words)” value is recorded as “strong increase in inhibition activity”.

For `N#Cc1ccc(NNC(=O)c2ccc(C(F)(F)F)c(F)c2)c(C(F)(F)F)c1` [compound 70693], the values for the inhibition at 10 µM in the test on IMR32 cells and in the test with HO15.19 cells were 22.4% and 0.2%, respectively. In test [1], the “transcription inhibition activity (in words)” value was “strong increase in inhibition activity”.

For the molecule `N#Cc1ccc(NNC(=O)c2cc(Cl)c(N)c(Cl)c2)c(C(F)(F)F)c1` [compound 70695], the inhibition at 10 µM in the test with IMR32 cells was determined as 77.1%; with HO15.19 cells, 41.2%. In addition, the “transcription inhibition activity (in words)” value in test [1] was “better inhibition activity”.

As to `N#Cc1ccc(NNC(=O)c2ccc(F)c(C#N)c2)c(C(F)(F)F)c1` [compound 70696], the inhibition at 10 µM turned out to be 15.1% in the test on IMR32 cells and 13.2% in the test with HO15.19 cells. Also, in test [1], the “transcription inhibition activity (in words)” value is reported as “strong increase in inhibition activity”.

For `N#Cc1ccc(Cl)c(C(=O)NNc2ccc(C#N)cc2C(F)(F)F)c1` [compound 70698], the results for the inhibition at 10 µM in the test on IMR32 cells and in the test on HO15.19 cells were 35.4% and 27.3%, respectively. Also, in test [1], the “transcription inhibition activity (in words)” value is on record as “high transcription inhibition activity”.

With `COc1cc(Cl)cc(C(=O)NNc2ccc(C#N)cc2C(F)(F)F)c1` [compound 70700], the inhibition at 10 µM was found to be 60.5% in the test with IMR32 cells and 42% in the test on HO15.19 cells. For the same molecule, in test [1], the “transcription inhibition activity (in words)” value is recorded as “better inhibition activity”.

As for `N#Cc1ccc(NNC(=O)c2cccc(I)c2)c(C(F)(F)F)c1` [compound 70703], the inhibition at 10 µM with IMR32 cells amounted to 18.5%; in the test on HO15.19 cells, 13.5%. Further, the “transcription inhibition activity (in words)” value in test [1] was “better inhibition activity”.

Take `N#Cc1ccc(NNC(=O)c2ccccc2F)c(C(F)(F)F)c1` [compound 70709]: in test [1], the 5uM corrected is reported as 0, the “10 uM corrected” value is given as -10 and the “transcription inhibition activity (in words)” value is on record as “declined considerably or was lost completely”.

Turning to `CS(=O)(=O)c1cc(C(=O)NNc2ccc(C#N)cc2C(F)(F)F)ccc1Cl` [compound 70721], in test [1], the 5uM corrected was -42, the “10 uM corrected” value amounted to 2 and the “transcription inhibition activity at 5 µM (in words)” value is recorded as “did not impart any inhibitory activity”.

As for `N#Cc1ccc(NNC(=O)c2cccc(Br)c2)c(C(F)(F)F)c1` [compound 70754], in test [1], the 5uM corrected is 94, the “10 uM corrected” value is recorded as 60 and the “transcription inhibition activity (in words)” value is “better inhibition activity”.

`Cc1ccc(C(=O)NNc2ccc(C#N)cc2C(F)(F)F)cc1F` [compound 70765]: in test [1], the 5uM corrected is listed as 30, the “10 uM corrected” value was found to be 54 and the “transcription inhibition activity (in words)” value was “lower transcription inhibition or no activity at all”.

With `N#Cc1ccc(NNC(=O)c2cc(F)c(F)cc2F)c(C(F)(F)F)c1` [compound 70772], in test [1], the 5uM corrected stood at 22, the “10 uM corrected” value is given as 94 and the “transcription inhibition activity (in words)” value is recorded as “nullified activity”.

Values taken from paper PMC8910697, “Development of VPC-70619, a Small-Molecule N-Myc Inhibitor as a Potential Therapy for Neuroendocrine Prostate Cancer” (International Journal of Molecular Sciences, 2022).
